Reference: PubChem BioAssay AID330 (DTP/NCI, 2004)
Values joined by “and” are separate entries in the source; they are usually repeats but may differ in a detail not shown here. Identical values can stand only once. Inconclusive results and toxic doses are left out. How the source made its calls: active means survival T/C of 150% or more; inactive means T/C below 125% in these data.

System: P388 leukemia ip, CD2F1 mice, survival T/C
Assay: NCI In Vivo Anticancer Drug Screen. Data for tumor model P388 Leukemia (intraperitoneal) in CD2F1 (CDF1) mice
Conditions: endpoint: median survival time, higher = longer survival
In short: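 Mice carrying the transplanted tumor received test compound or vehicle. Survival was recorded in each group, and the value is the treated-group measurement divided by that of the vehicle-treated control group.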

[1] = dose: 50.0 mg/kg/injection, schedule: Q01DX009 (ip), vehicle: saline
[2] = dose: 100.0 mg/kg/injection, schedule: Q01DX009 (ip), vehicle: saline
[3] = dose: 200.0 mg/kg/injection, schedule: Q01DX009 (ip), vehicle: saline
[4] = dose: 400.0 mg/kg/injection, schedule: Q01DX009 (ip), vehicle: saline
[5] = dose: 50.0 mg/kg/injection, schedule: Q01DX005 (ip), vehicle: saline with Tween-80
[6] = dose: 100.0 mg/kg/injection, schedule: Q01DX005 (ip), vehicle: saline with Tween-80
[7] = dose: 200.0 mg/kg/injection, schedule: Q01DX005 (ip), vehicle: saline with Tween-80
[8] = dose: 100.0 mg/kg/injection, schedule: Q01DX009 (ip), vehicle: saline with Tween-80
[9] = dose: 200.0 mg/kg/injection, schedule: Q01DX009 (ip), vehicle: saline with Tween-80
[10] = dose: 100.0 mg/kg/injection, schedule: Q01DX009 (ip), vehicle: suspension in saline
[11] = dose: 50.0 mg/kg/injection, schedule: Q01DX005 (ip), vehicle: Klucel (hydroxypropylcellulose) (HPC)
[12] = dose: 100.0 mg/kg/injection, schedule: Q01DX005 (ip), vehicle: Klucel (hydroxypropylcellulose) (HPC)
[13] = dose: 200.0 mg/kg/injection, schedule: Q01DX005 (ip), vehicle: Klucel (hydroxypropylcellulose) (HPC)
[14] = dose: 60.0 mg/kg/injection, schedule: Q01DX005 (ip), vehicle: saline with Tween-80
[15] = dose: 120.0 mg/kg/injection, schedule: Q01DX005 (ip), vehicle: saline with Tween-80
[16] = dose: 12.5 mg/kg/injection, schedule: Q01DX009 (ip), vehicle: saline
[17] = dose: 25.0 mg/kg/injection, schedule: Q01DX009 (ip), vehicle: saline
[18] = dose: 100.0 mg/kg/injection, schedule: Q04DX002 (ip), vehicle: saline with Tween-80
[19] = dose: 200.0 mg/kg/injection, schedule: Q04DX002 (ip), vehicle: saline with Tween-80

Measured: T/C

Cc1nc(Sc2nc3ccc([N+](=O)[O-])cc3s2)sc1C
inactive: [1] 87 % of control | [2] 96 % of control | [3] 105 % of control | [4] 96 % of control

CC(C)C(NC(=O)C(CCCCN)N(C(=O)OCc1ccccc1)C(=O)OCc1ccccc1)C(=O)O (stereo not given)
inactive: [5] 100 % of control | [6] 93 % of control | [7] 92 % of control

CC(C)=CCn1c2ccccc2c(=O)c2ccccc21
inactive: [5] 112 % of control | [6] 105 % of control | [7] 107 % of control

c1ccc2[nH]c(N=Nc3cccc4c(N=Nc5cc6ccccc6[nH]5)cccc34)cc2c1
inactive: dose: 50.0 mg/kg/injection, schedule: Q01DX009 (ip), vehicle: saline with Tween-80 100 % of control | [8] 100 % of control | [9] 103 % of control

O=[N+]([O-])C(CO)C(CO)[N+](=O)[O-] (stereo not given)
inactive: dose: 100.0 mg/kg/injection, schedule: Q01DX009 (ip), vehicle: Klucel (hydroxypropylcellulose) (HPC) 110 % of control | [10] 103 % of control | dose: 200.0 mg/kg/injection, schedule: Q01DX009 (ip), vehicle: Klucel (hydroxypropylcellulose) (HPC) 108 % of control | dose: 200.0 mg/kg/injection, schedule: Q01DX009 (ip), vehicle: suspension in saline 100 % of control | dose: 400.0 mg/kg/injection, schedule: Q01DX009 (ip), vehicle: Klucel (hydroxypropylcellulose) (HPC) 111 % of control | dose: 400.0 mg/kg/injection, schedule: Q01DX009 (ip), vehicle: suspension in saline 109 % of control

Cc1ccc(S(=O)(=O)CCC(=O)c2ccc([N+](=O)[O-])cc2)cc1
inactive: [11] 96 % of control | [12] 96 % of control | [13] 96 % of control

O=C(/N=C1\N=Nc2nc(C(C(=O)c3ccc(F)cc3)c3nc4n(c3O)/C(=N/C(=O)Nc3ccc(Cl)cc3)N=N4)c(O)n21)Nc1ccc(Cl)cc1 (stereo not given)
inactive: [14] 91 % of control | [15] 91 % of control | dose: 240.0 mg/kg/injection, schedule: Q01DX005 (ip), vehicle: saline with Tween-80 88 % of control

C=CN=NNc1ccccc1OC
inactive: dose: 100.0 mg/kg/injection, schedule: Q04DX003 (ip), vehicle: saline + Tween-80 + alcohol 107 % of control | dose: 200.0 mg/kg/injection, schedule: Q04DX003 (ip), vehicle: saline + Tween-80 + alcohol 105 % of control | dose: 400.0 mg/kg/injection, schedule: Q04DX003 (ip), vehicle: saline + Tween-80 + alcohol 107 % of control

COc1cccc(CCl)c1
inactive: [8] 110 % of control and 118 % of control | [9] 117 % of control and 124 % of control

CCCCCC[N+]1(CC)CCCCC1
inactive: dose: 6.25 mg/kg/injection, schedule: Q01DX009 (ip), vehicle: saline 107 % of control | [16] 105 % of control | [17] 107 % of control

COC(=O)Nc1nc2ccc(OCCO)cc2[nH]1
inactive: dose: 25.0 mg/kg/injection, schedule: Q01DX005 (ip), vehicle: DMSO 104 % of control | dose: 50.0 mg/kg/injection, schedule: Q01DX005 (ip), vehicle: DMSO 100 % of control | dose: 100.0 mg/kg/injection, schedule: Q01DX005 (ip), vehicle: DMSO 104 % of control | dose: 200.0 mg/kg/injection, schedule: Q01DX005 (ip), vehicle: DMSO 103 % of control | dose: 400.0 mg/kg/injection, schedule: Q01DX005 (ip), vehicle: DMSO 101 % of control

O=c1ccc(=O)[nH][nH]1
inactive: [17] 102 % of control | [1] 105 % of control and 88 % of control | [2] 99 % of control and 102 % of control | [3] 99 % of control and 100 % of control | [4] 99 % of control and 110 % of control

CCN(CC)CC1(CC(=O)N2c3ccccc3Sc3ccccc32)COC1
inactive: [1] 107 % of control | [2] 100 % of control | [3] 105 % of control

C=CC(C)NC(=S)NNC(=S)NC (stereo not given)
inactive: [11] 101 % of control | [12] 100 % of control | [13] 101 % of control

O=C1NC2CCC1CC2
inactive: dose: 50.0 mg/kg/injection, schedule: Q01DX005 (ip), vehicle: suspension in saline 101 % of control | dose: 100.0 mg/kg/injection, schedule: Q01DX005 (ip), vehicle: suspension in saline 97 % of control | dose: 200.0 mg/kg/injection, schedule: Q01DX005 (ip), vehicle: suspension in saline 102 % of control

C=C(c1ccc(OC)cc1)C(CC)c1ccc(OC)cc1 (stereo not given)
inactive: [14] 101 % of control | [15] 100 % of control

COc1ccc(C(C)(OC)c2cc(C(C)(C)C)c(O)c(C(C)(C)C)c2)cc1 (stereo not given)
inactive: dose: 50.0 mg/kg/injection, schedule: Q01DX005 (ip), vehicle: saline + Tween-80 + alcohol 104 % of control | dose: 100.0 mg/kg/injection, schedule: Q01DX005 (ip), vehicle: saline + Tween-80 + alcohol 101 % of control | dose: 200.0 mg/kg/injection, schedule: Q01DX005 (ip), vehicle: saline + Tween-80 + alcohol 102 % of control

CCN(C)c1nc(N(C)C)nc(N(C)C)n1
inactive: dose: 50.0 mg/kg/injection, schedule: Q04DX002 (ip), vehicle: saline with Tween-80 100 % of control | dose: 50.0 mg/kg/injection, schedule: Q04DX002 (ip), vehicle: saline 109 % of control | [18] 107 % of control | dose: 100.0 mg/kg/injection, schedule: Q04DX002 (ip), vehicle: saline 110 % of control | [19] 100 % of control | dose: 200.0 mg/kg/injection, schedule: Q04DX002 (ip), vehicle: saline 109 % of control

COc1ncnc2c1ccn2C1OC(CO)C(O)C1O (stereo not given)
inactive: dose: 6.25 mg/kg/injection, schedule: Q01DX005 (ip), vehicle: Klucel (hydroxypropylcellulose) (HPC) 107 % of control | dose: 12.5 mg/kg/injection, schedule: Q01DX005 (ip), vehicle: Klucel (hydroxypropylcellulose) (HPC) 89 % of control

O=c1ccnc[nH]1
inactive: [18] 105 % of control | [19] 93 % of control

COc1ccc(CSC(=S)Nc2cc(Cl)c(Cl)cc2Cl)cc1
inactive: [16] 88 % of control | [17] 97 % of control | [1] 99 % of control | dose: 50.0 mg/kg/injection, schedule: Q01DX009 (ip), vehicle: suspension in saline 93 % of control | [10] 103 % of control

CC(=O)/C(=C\c1ccc(/C=C(\C(C)=O)C(=O)CCN(C)C)cc1)C(=O)CCN(C)C
inactive: [5] 109 % of control and 118 % of control | [6] 120 % of control | [7] 105 % of control | dose: 400.0 mg/kg/injection, schedule: Q01DX005 (ip), vehicle: saline with Tween-80 120 % of control

CCOP(=O)(O)C1CCCC(C)[N-]1.CCOP(=O)(O)C1CCCC(C)[N-]1.CCOP(=O)(O)C1CCCC(C)[N-]1.[Fe+3] (stereo not given)
inactive: dose: 12.5 mg/kg/injection, schedule: Q04DX003 (ip), vehicle: saline 91 % of control | dose: 25.0 mg/kg/injection, schedule: Q04DX003 (ip), vehicle: saline 95 % of control | dose: 50.0 mg/kg/injection, schedule: Q04DX003 (ip), vehicle: saline 94 % of control | dose: 400.0 mg/kg/injection, schedule: Q04DX003 (ip), vehicle: saline 86 % of control
